Legend:
Experiment in all cases: DSF 100 kinase selectivity screen;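 note: compound tested at 20 µM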
Format in all cases: binding
[1] = target: T1, ~100 representative kinases (Homo sapiens, UniProt Q86V86); conditions: protein PIM3; average of three replicates
T1 construct: Recombinant protein kinase domains with a concentration of 2 μM
Outline: (§1)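 Each kinase domain, at 2 μM, is mixed with 20 μM test compound and SYPRO Orange in Hepes (20 mM, pH 7.5) with 500 mM NaCl. Temperature is then raised at 3°C/min and fluorescence-monitored unfolding yields the melting temperature change, ΔTm in degrees Celsius.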

[2] = target: T2, ~100 representative kinases (Homo sapiens, UniProt P21675); conditions: Protein TAF1; DSF; average of three replicates
T2 construct: Recombinant protein kinase domains with a concentration of 2 μM
T2 sequence (P21675 whole entry, the tested form may be a part): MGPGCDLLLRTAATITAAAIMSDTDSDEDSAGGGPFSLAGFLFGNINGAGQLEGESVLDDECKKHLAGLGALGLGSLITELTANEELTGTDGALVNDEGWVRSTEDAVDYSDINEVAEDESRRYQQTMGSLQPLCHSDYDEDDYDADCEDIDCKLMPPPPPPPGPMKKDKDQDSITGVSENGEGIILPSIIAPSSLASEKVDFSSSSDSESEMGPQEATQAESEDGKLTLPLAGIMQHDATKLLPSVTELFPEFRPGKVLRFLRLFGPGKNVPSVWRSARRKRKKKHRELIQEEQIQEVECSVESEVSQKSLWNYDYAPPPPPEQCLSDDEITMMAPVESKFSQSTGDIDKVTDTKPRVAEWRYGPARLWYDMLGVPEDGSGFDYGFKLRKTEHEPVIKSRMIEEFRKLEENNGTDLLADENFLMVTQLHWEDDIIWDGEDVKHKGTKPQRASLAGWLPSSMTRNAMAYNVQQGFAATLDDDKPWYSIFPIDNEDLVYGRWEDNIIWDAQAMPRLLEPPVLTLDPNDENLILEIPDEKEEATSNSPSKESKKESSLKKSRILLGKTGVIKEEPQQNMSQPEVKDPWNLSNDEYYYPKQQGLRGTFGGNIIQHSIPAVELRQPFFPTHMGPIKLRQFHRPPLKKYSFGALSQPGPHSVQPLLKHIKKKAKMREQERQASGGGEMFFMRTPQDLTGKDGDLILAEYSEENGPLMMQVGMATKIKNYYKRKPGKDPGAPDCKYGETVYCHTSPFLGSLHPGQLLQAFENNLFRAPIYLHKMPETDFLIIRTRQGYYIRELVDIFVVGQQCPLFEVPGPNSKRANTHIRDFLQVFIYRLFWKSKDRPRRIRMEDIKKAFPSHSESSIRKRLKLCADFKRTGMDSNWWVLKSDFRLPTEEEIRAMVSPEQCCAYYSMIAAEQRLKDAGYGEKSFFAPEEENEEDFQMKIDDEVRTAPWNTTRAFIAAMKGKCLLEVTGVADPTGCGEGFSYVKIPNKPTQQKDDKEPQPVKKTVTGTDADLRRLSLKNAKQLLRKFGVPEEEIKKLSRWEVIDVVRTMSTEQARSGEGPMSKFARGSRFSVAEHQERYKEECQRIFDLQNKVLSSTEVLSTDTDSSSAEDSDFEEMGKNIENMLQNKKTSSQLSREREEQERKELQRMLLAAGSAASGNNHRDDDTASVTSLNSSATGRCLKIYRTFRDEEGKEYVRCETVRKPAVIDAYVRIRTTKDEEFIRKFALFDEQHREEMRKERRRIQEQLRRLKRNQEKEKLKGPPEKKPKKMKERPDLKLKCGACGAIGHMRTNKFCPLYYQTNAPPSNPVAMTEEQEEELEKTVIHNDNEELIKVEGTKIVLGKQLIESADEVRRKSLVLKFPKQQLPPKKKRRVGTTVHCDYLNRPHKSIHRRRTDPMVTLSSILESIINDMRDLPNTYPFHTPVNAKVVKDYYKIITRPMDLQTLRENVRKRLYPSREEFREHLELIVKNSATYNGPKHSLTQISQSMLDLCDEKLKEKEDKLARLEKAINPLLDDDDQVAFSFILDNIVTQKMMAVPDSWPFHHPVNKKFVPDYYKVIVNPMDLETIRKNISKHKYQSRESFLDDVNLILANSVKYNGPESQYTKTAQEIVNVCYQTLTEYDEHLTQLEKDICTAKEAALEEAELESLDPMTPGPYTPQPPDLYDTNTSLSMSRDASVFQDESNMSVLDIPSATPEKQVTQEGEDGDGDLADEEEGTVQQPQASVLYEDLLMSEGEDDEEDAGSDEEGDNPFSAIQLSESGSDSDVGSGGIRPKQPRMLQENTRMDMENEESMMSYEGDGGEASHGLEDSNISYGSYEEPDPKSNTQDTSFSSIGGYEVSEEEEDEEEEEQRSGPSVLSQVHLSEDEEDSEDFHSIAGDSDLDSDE
Outline: as §1

[3] = target: T3, ~100 representative kinases (Homo sapiens, UniProt Q96L34); conditions: protein MARK4; average of three replicates
T3 construct: Recombinant protein kinase domains with a concentration of 2 μM
T3 sequence (Q96L34 1-752): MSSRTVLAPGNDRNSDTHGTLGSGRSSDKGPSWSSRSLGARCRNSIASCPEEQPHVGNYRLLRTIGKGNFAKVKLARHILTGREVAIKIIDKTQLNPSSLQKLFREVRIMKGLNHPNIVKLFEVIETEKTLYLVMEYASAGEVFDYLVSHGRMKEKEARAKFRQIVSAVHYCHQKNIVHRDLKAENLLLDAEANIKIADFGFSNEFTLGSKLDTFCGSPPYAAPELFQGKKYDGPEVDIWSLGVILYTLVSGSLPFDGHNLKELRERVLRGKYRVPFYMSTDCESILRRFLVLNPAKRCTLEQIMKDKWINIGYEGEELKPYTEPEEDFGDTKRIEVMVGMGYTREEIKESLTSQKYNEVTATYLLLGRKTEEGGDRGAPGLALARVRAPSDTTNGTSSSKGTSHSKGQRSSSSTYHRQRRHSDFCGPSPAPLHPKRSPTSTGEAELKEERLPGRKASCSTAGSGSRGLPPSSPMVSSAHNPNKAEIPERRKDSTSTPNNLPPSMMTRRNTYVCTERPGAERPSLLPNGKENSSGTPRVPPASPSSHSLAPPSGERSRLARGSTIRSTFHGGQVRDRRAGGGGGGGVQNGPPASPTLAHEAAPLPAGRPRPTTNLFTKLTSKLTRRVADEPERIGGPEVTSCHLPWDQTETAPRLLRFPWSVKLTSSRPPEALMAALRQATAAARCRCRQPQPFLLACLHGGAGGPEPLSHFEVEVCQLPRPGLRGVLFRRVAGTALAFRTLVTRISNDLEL
Outline: as §1

[4] = target: T4, ~100 representative kinases (Homo sapiens, UniProt Q15418); conditions: Protein RPS6KA1; DSF; average of three replicates
T4 construct: Recombinant protein kinase domains with a concentration of 2 μM
Outline: as §1

[5] = target: T5, ~100 representative kinases (Homo sapiens, UniProt Q96RR4); conditions: Protein CAMKK2; average of three replicates
T5 construct: Recombinant protein kinase domains with a concentration of 2 μM
T5 sequence (Q96RR4 whole entry, the tested form may be a part): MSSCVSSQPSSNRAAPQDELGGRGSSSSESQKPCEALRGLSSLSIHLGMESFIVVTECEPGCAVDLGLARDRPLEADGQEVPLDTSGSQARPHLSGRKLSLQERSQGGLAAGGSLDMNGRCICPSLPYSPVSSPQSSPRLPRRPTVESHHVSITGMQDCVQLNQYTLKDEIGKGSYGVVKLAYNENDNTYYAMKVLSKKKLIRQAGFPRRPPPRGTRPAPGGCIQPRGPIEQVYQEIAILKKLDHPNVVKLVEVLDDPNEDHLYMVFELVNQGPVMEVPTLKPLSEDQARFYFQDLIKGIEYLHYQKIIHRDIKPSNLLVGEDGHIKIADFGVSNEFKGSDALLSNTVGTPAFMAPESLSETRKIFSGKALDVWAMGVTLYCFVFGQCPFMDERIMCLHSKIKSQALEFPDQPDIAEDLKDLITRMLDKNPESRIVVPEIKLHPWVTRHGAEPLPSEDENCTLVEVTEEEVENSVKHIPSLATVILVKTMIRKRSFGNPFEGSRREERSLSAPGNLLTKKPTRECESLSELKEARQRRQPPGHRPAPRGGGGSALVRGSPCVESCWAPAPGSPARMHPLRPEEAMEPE
Outline: as §1

[6] = target: T6, ~100 representative kinases (Homo sapiens, UniProt O14965); conditions: Protein STK6; DSF; average of three replicates
T6 construct: Recombinant protein kinase domains with a concentration of 2 μM
T6 sequence (O14965 1-403): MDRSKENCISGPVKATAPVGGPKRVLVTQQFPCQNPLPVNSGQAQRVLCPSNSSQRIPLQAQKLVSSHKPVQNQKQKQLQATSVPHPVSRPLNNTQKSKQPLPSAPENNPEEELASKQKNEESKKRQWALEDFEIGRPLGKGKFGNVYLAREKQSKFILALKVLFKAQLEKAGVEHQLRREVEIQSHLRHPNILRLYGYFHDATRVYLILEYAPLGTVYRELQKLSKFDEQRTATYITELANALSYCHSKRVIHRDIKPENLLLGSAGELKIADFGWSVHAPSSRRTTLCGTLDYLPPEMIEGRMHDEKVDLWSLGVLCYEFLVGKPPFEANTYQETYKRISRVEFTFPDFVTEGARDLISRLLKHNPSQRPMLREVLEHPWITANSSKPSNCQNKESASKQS
Outline: as §1

[7] = target: T7, ~100 representative kinases (Homo sapiens, UniProt Q9Y6E0); conditions: protein MST3; average of three replicates
T7 construct: Recombinant protein kinase domains with a concentration of 2 μM
T7 sequence (Q9Y6E0 whole entry, the tested form may be a part): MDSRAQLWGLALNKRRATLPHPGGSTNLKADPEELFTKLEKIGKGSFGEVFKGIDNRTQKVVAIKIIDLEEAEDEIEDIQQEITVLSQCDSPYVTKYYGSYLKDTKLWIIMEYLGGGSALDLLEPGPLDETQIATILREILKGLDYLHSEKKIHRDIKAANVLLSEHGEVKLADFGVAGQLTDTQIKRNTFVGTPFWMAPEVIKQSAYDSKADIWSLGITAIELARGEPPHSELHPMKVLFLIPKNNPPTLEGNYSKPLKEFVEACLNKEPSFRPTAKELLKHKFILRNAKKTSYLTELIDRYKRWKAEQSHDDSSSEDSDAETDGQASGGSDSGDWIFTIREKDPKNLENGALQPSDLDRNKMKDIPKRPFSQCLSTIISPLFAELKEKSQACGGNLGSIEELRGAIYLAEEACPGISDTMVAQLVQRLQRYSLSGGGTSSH
Outline: as §1

[8] = target: T8, ~100 representative kinases (Homo sapiens, UniProt O75582); conditions: Protein RPS6KA5; DSF; average of three replicates
T8 construct: Recombinant protein kinase domains with a concentration of 2 μM
T8 sequence (O75582 whole entry, the tested form may be a part): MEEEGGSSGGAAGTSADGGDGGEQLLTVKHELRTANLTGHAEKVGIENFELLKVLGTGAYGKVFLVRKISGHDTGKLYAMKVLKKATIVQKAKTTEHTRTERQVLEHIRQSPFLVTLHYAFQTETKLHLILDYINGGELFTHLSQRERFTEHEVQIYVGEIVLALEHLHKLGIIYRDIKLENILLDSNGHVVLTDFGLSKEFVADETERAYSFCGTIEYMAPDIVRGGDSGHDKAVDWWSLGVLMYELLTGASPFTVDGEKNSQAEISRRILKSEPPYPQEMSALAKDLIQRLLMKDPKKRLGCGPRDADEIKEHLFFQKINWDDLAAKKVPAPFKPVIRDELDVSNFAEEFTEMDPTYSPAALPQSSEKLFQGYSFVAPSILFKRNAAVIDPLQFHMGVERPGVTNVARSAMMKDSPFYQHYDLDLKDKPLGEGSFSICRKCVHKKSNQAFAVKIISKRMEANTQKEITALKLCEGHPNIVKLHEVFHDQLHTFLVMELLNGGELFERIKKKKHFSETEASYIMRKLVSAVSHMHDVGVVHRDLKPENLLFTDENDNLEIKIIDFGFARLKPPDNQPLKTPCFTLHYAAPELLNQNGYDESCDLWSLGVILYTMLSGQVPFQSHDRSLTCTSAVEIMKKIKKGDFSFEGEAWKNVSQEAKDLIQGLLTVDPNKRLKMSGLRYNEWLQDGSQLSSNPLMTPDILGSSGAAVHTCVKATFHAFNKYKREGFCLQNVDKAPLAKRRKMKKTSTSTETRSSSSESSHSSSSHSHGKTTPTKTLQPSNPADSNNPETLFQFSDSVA
Outline: as §1

[9] = target: T9, ~100 representative kinases (Homo sapiens, UniProt P51955); conditions: protein NEK2; average of three replicates
T9 construct: Recombinant protein kinase domains with a concentration of 2 μM
T9 sequence (P51955 1-445): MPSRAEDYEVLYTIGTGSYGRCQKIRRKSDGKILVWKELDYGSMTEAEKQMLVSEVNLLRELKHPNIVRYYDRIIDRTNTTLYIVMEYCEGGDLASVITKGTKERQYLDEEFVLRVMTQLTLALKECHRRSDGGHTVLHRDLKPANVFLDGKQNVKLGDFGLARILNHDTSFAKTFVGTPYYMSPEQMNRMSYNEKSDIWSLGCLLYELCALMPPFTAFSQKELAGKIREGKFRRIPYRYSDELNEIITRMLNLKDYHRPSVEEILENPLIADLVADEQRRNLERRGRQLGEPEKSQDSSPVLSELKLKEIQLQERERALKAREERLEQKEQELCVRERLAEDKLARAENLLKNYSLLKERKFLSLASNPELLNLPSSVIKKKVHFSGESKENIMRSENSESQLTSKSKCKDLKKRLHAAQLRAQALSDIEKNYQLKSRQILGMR
Outline: as §1

[10] = target: T10, ~100 representative kinases (Homo sapiens, UniProt P21802); conditions: protein FGFR2; average of three replicates
T10 construct: Recombinant protein kinase domains with a concentration of 2 μM
T10 sequence (P21802 22-821): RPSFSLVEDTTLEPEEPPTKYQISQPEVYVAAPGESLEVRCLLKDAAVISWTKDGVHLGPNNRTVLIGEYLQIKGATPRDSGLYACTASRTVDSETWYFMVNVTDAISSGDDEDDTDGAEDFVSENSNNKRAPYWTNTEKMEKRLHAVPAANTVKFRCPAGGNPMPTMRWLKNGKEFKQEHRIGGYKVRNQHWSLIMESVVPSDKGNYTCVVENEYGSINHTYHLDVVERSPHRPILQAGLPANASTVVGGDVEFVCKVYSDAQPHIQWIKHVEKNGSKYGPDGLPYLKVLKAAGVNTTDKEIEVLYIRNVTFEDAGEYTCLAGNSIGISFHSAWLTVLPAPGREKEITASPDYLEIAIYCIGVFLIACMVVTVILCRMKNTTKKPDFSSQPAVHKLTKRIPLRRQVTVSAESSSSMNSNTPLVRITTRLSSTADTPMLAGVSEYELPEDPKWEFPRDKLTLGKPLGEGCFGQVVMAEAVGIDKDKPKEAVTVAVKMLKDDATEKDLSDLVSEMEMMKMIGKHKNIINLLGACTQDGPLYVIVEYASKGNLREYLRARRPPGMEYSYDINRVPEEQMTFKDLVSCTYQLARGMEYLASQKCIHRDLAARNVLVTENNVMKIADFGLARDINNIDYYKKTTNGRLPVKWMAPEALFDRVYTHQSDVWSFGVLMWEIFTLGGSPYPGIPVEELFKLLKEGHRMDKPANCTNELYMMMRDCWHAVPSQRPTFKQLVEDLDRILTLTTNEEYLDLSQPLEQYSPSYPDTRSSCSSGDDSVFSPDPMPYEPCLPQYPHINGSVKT
Outline: as §1

SMILES | dTm [1] | dTm [2] | dTm [3] | dTm [4] | dTm [5] | dTm [6] | dTm [7] | dTm [8] | dTm [9] | dTm [10]
O=C(Nc1ccccc1)C1(C(=O)Nc2cccc(-c3c[nH]c4ncnc(N5CCOCC5)c34)c2)CC1 [Compound 12] | 0.88 K | -0.82 K | 3.45 K | 0.56 K | 5.09 K | 6.39 K | 3.58 K | 6.52 K | 1.92 K | 2.56 K
Cc1ccc(NC(=O)C2(C(=O)Nc3cccc(-c4c[nH]c5ncnc(N6CCOCC6)c45)c3)CC2)cc1 [Compound 14] | 0.71 K | 0.34 K | 3.97 K | 0.14 K | 4.94 K | 7.04 K | 4.56 K | 3.04 K | 0.85 K | 1.78 K
O=C(Nc1ccc(Cl)cc1)C1(C(=O)Nc2cccc(-c3c[nH]c4ncnc(N5CCOCC5)c34)c2)CC1 [Compound 13] | 1.90 K | 1.29 K | 5.82 K | -0.42 K | 7.83 K | 9.16 K | 4.95 K | 5.83 K | 2.76 K | 3.14 K
O=C(Nc1cccc(-c2c[nH]c3ncnc(N4CCOCC4)c23)c1)C1(C(=O)Nc2ccc(F)c(Br)c2)CC1 [Compound 19] | -0.34 K | 0.00 K | 5.43 K | 0.26 K | 9.18 K | 7.49 K | 3.29 K | 6.08 K | -0.29 K | 4.16 K
O=C(Nc1cccc(-c2c[nH]c3ncnc(N4CCOCC4)c23)c1)C1(C(=O)Nc2ccc(F)c(Cl)c2)CC1 [Compound 18] | 1.00 K | 1.40 K | 4.93 K | 0.70 K | 9.58 K | 8.24 K | 6.96 K | -1.56 K | 1.39 K | 4.02 K
O=C(Nc1cccc(-c2c[nH]c3ncnc(N4CCOCC4)c23)c1)C1(C(=O)Nc2cc(Br)c(F)cc2F)CC1 [Compound 25] | -0.17 K | 1.63 K | -6.37 K | -1.87 K | 6.31 K | 6.39 K | 0.83 K | 0.35 K | -3.69 K | 3.32 K
O=C(Nc1cccc(-c2c[nH]c3ncnc(N4CCOCC4)c23)c1)c1cccn(-c2ccc(F)cc2)c1=O [Compound 4] | 0.41 K | -0.36 K | 3.88 K | -0.19 K | 8.67 K | 7.18 K | 3.28 K | -0.28 K | 0.47 K | 5.86 K
Cc1ccc(C(=O)Nc2ccc(CN3CCN(C)CC3)c(C(F)(F)F)c2)cc1C#Cc1c[nH]c2ncnc(N3CCOCC3)c12 [Compound 1] | 2.19 K | 0.36 K | 1.18 K | 2.57 K | 10.65 K | 12.62 K | 3.57 K | 1.58 K | 4.11 K | 4.16 K
O=C(Nc1ccc(F)cc1)C1(C(=O)Nc2cccc(-c3c[nH]c4ncnc(N5CCOCC5)c34)c2)CC1 [Compound 2] | -0.94 K | 0.23 K | 3.91 K | 0.23 K | 7.29 K | 6.07 K | 7.19 K | 4.64 K | 0.52 K | 2.43 K
Cc1cc(NC(=O)C2(C(=O)Nc3ccc(F)cc3)CC2)cc(-c2c[nH]c3ncnc(N4CCOCC4)c23)c1 [Compound 6] | 1.05 K | 0.30 K | -6.12 K | 0.88 K | 4.32 K | 6.69 K | -0.29 K | 3.89 K | 0.05 K | 1.97 K
O=C(Nc1cccc(-c2c[nH]c3ncnc(N4CCOCC4)c23)c1)C1(C(=O)Nc2ccc(F)c(Br)c2F)CC1 [Compound 26] | 0.88 K | -1.20 K | 1.86 K | 0.78 K | 5.53 K | 3.83 K | 3.50 K | -0.55 K | -4.02 K | 3.74 K
Cc1cc(F)ccc1NC(=O)C1(C(=O)Nc2cccc(-c3c[nH]c4ncnc(N5CCOCC5)c34)c2)CC1 [Compound 24] | 0.00331 K | 0.30 K | 2.55 K | 0.19 K | 6.43 K | 6.56 K | 3.82 K | -1.10 K | 1.66 K | 2.08 K
CCSc1nc(NC)c2c(-c3cccc(NC(=O)Nc4cc(C(C)(C)C)nn4-c4ccc(C)cc4)c3)c[nH]c2n1 [Compound 32] | 2.14 K | -5.70 K | 0.25 K | 0.43 K | 2.43 K | 0.53 K | -1.49 K | 0.23 K | 0.87 K | -0.15 K
O=C(Nc1cccc(-c2c[nH]c3ncnc(N4CCOCC4)c23)c1)C1(C(=O)Nc2cccc3c2CCC3)CC1 [Compound 11] | 0.61 K | -5.02 K | 0.00 K | 0.47 K | 5.02 K | 4.34 K | -2.04 K | 0.69 K | -1.56 K | 2.75 K
CCc1ccc(NC(=O)C2(C(=O)Nc3cccc(-c4c[nH]c5ncnc(N6CCOCC6)c45)c3)CC2)cc1 [Compound 15] | 1.24 K | 1.78 K | 4.84 K | 0.29 K | 5.52 K | 9.54 K | 2.23 K | 2.22 K | 2.27 K | 2.28 K

From paper PMC12136037, “Type II kinase inhibitors that target Parkinson’s disease–associated LRRK2” (Science Advances, 2025)
